# Source: patent US20250313548A1 (Actio Biosciences, Inc., priority 2023, published 2025)
# Target: human, KCNT1 (Homo sapiens (Human), UniProt Q5JUK3)
# Assay: FLIPR Tl/K Flux Assay
# Type: cell-based
# Conditions: HEK293 cells stably expressing human KCNT1; Tl+ flux stimulated with EC80 of agonist Loxapine
# Summary of the method: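 Inhibition values come from a Hill-equation fit of % inhibition versus log concentration, using normalized fluorescence (Fmax/Fmin) over a 160 s read. The read followed stimulation with Tl+ plus EC80 agonist loxapine after 30 min compound pre-incubation at 25 °C. Cells were KCNT1-expressing HEK293, dye-loaded 1 h in pH 7.4 HEPES/HBSS with 5 mM probenecid.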
# Chain of human, KCNT1 (Q5JUK3 whole entry): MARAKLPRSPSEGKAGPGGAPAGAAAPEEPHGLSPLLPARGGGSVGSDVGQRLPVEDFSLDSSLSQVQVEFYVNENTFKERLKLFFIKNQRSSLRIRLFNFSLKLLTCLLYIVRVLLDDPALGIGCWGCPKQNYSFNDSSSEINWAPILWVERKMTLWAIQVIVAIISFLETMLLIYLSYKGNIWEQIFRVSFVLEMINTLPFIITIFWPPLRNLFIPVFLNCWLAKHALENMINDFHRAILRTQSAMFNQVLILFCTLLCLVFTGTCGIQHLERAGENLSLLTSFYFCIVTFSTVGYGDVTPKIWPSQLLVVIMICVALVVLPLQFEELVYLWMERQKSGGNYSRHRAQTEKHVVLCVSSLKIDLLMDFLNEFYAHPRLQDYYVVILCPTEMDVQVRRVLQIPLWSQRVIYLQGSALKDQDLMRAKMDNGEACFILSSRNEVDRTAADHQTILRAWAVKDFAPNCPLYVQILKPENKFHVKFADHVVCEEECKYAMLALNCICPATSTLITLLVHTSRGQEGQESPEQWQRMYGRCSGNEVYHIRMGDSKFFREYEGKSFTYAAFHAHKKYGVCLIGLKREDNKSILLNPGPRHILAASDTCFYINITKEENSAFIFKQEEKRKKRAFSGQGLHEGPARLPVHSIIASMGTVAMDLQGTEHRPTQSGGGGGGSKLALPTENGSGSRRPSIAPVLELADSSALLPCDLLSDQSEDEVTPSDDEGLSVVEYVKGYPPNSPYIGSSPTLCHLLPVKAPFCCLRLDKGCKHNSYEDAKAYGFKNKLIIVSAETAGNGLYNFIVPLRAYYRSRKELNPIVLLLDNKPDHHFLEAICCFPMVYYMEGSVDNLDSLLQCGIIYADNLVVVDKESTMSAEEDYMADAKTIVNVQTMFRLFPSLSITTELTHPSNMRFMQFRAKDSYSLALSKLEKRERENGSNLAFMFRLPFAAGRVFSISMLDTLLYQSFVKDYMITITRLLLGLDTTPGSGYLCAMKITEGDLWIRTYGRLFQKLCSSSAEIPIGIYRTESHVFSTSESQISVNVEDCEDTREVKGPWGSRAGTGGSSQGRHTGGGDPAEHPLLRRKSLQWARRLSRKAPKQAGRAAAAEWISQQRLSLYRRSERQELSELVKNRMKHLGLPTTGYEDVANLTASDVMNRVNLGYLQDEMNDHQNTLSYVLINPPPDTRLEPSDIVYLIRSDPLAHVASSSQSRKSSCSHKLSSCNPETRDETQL
row,Compound,IC50 [nM]
1,CCc1cc(-n2cc3c(n2)CC[C@@H]3NC(=O)c2cc(C(F)(F)F)nn2C)ccn1 [Compound I-69a],< 250
2,CCc1cc(-n2cc3c(n2)CC[C@H]3NC(=O)c2cc(C(F)(F)F)nn2C)ccn1 [Compound I-69b],> 1000
3,CC(C)c1cc(-n2cc3c(n2)CC[C@@H]3NC(=O)c2cc(C(F)(F)F)nn2C)ccn1 [Compound I-70a],< 250
4,CC(C)c1cc(-n2cc3c(n2)CC[C@H]3NC(=O)c2cc(C(F)(F)F)nn2C)ccn1 [Compound I-70b],> 1000
5,Cn1nc(C(F)(F)F)cc1C(=O)N[C@H]1CCc2nn(-c3ccnc(C4CC4)c3)cc21 [Compound I-71a],< 250
6,Cn1nc(C(F)(F)F)cc1C(=O)N[C@@H]1CCc2nn(-c3ccnc(C4CC4)c3)cc21 [Compound I-71b],500 to 1000
7,Cn1nc(C(F)(F)F)cc1C(=O)N[C@H]1CCc2nn(-c3ccnc(C4CCC4)c3)cc21 [Compound I-72a],< 250
8,Cn1nc(C(F)(F)F)cc1C(=O)N[C@@H]1CCc2nn(-c3ccnc(C4CCC4)c3)cc21 [Compound I-72b],> 1000
9,Cn1nc(C(F)(F)F)cc1C(=O)N[C@H]1CCc2nn(-c3ccnc(OC(F)(F)F)c3)cc21 [Compound I-73a],< 250
10,Cn1nc(C(F)(F)F)cc1C(=O)N[C@@H]1CCc2nn(-c3ccnc(OC(F)(F)F)c3)cc21 [Compound I-73b],500 to 1000
11,Cn1nc(C(F)(F)F)cc1C(=O)N[C@H]1CCc2nn(-c3ccnc(OC(F)F)c3)cc21 [Compound I-74a],< 250
12,Cn1nc(C(F)(F)F)cc1C(=O)N[C@@H]1CCc2nn(-c3ccnc(OC(F)F)c3)cc21 [Compound I-74b],> 1000
13,"Cn1nc(C(F)(F)F)cc1C(=O)N[C@H]1CCc2nn(-c3ccnc(C4(C)CC4)c3)cc21 [Compound I-75a, (S)-1-Methyl-N-(2-(2-(1-methylcyclopropyl)pyridin-4-yl)-2,4,5,6-tetrahydrocyclopenta[c]pyrazol-4-yl)-3-(trifluoromethyl)-1H-pyrazole-5-carboxamide]",< 250
14,Cn1nc(C(F)(F)F)cc1C(=O)N[C@H]1CCc2nn(-c3ccnc(C(C)(C)O)c3)cc21 [Compound I-76a],> 1000
15,"Cn1nc(C(F)(F)F)cc1C(=O)N[C@H]1CCc2nn(-c3ccnc(C(C)(F)F)c3)cc21 [Compound I-77a, (S)—N-(2-(2-(1,1-Difluoroethyl)pyridin-4-yl)-2,4,5,6-tetrahydrocyclopenta[c]pyrazol-4-yl)-1-methyl-3-(trifluoromethyl)-1H-pyrazole-5-carboxamide]",< 250
16,Cn1nc(C(F)(F)F)cc1C(=O)N[C@@H]1CCc2nn(-c3ccnc(C(C)(F)F)c3)cc21 [Compound I-77b],500 to 1000
17,C#Cc1cc(-n2cc3c(n2)CC[C@@H]3NC(=O)c2cc(C(F)(F)F)nn2C)ccn1 [Compound I-78a],< 250
18,C#Cc1cc(-n2cc3c(n2)CC[C@H]3NC(=O)c2cc(C(F)(F)F)nn2C)ccn1 [Compound I-78b],> 1000
19,Cn1nc(C(F)(F)F)cc1C(=O)N[C@H]1CCCc2sc(-c3ccnc(C(F)(F)F)c3)cc21 [Compound I-79a],< 250
20,Cn1nc(C(F)(F)F)cc1C(=O)N[C@H]1CCCc2sc(-c3ccnc(C(F)(F)F)c3)nc21 [Compound I-80a],500 to 1000
21,Cn1nc(C(F)(F)F)cc1C(=O)N[C@@H]1CCCc2sc(-c3ccnc(C(F)(F)F)c3)nc21 [Compound I-80b],> 1000
22,Cn1nc(C(F)(F)F)cc1C(=O)N[C@H]1CCCc2cc(-c3ccnc(C(F)(F)F)c3)sc21 [Compound I-81a],< 250
23,Cn1nc(C(F)(F)F)cc1C(=O)N[C@H]1CCCc2nc(-c3ccnc(C(F)(F)F)c3)sc21 [Compound I-82a],< 250
24,Cn1nc(C(F)(F)F)cc1C(=O)NC1CCCc2nc(-c3ccnc(C(F)(F)F)c3)oc21 (centres unmarked) [Compound I-83],< 250

row,Compound,IC50 [nM]
1,Cn1nc(C(F)(F)F)cc1C(=O)N[C@H]1CCCc2oc(-c3ccnc(C(F)(F)F)c3)nc21 [Compound I-84a],< 250
2,"Cn1nc(C(F)(F)F)cc1C(=O)N[C@H]1CCCn2nc(-c3ccnc(C(F)(F)F)c3)nc21 [Compound I-86a, (S)-1-Methyl-3-(trifluoromethyl)-N-(2-(2-(trifluoromethyl)pyridin-4-yl)-5,6,7,8-tetrahydro-[1,2,4]triazolo[1,5-a]pyridin-8-yl)-1H-pyrazole-5-carboxamide]",< 250
3,Cn1nc(C(F)(F)F)cc1C(=O)N[C@H]1CCCc2cn(-c3ccnc(C(F)(F)F)c3)nc21 [Compound I-87a],500 to 1000
4,Cn1nc(C(F)(F)F)cc1C(=O)N[C@@H]1CCCc2cn(-c3ccnc(C(F)(F)F)c3)nc21 [Compound I-87b],> 1000
5,Cn1nc(C(F)(F)F)cc1C(=O)N[C@H]1CCCc2nn(-c3ccnc(C(=O)O)c3)cc21 [Compound I-88a],> 1000
6,"Cn1nc(C(F)(F)F)cc1C(=O)N[C@H]1CCCc2cc(-c3ccnc(C(F)(F)F)c3)[nH]c21 [Compound I-89a, (S)-1-Methyl-3-(trifluoromethyl)-N-(2-(2-(trifluoromethyl)pyridin-4-yl)-4,5,6,7-tetrahydro-1H-indol-7-yl)-1H-pyrazole-5-carboxamide]",> 1000
7,Cc1c2c(nn1-c1ccnc(C(F)(F)F)c1)CCC[C@@H]2NC(=O)c1cc(C(F)(F)F)nn1C [Compound I-90a],250 to 500
8,O=C(N[C@H]1CCc2nn(-c3ccnc(C(F)(F)F)c3)cc21)c1ccccc1 [Compound I-91a],< 250
9,O=C(N[C@@H]1CCc2nn(-c3ccnc(C(F)(F)F)c3)cc21)c1ccccc1 [Compound I-91b],> 1000
10,Cc1ccccc1C(=O)N[C@H]1CCc2nn(-c3ccnc(C(F)(F)F)c3)cc21 [Compound I-92a],< 250
11,Cc1ccccc1C(=O)N[C@@H]1CCc2nn(-c3ccnc(C(F)(F)F)c3)cc21 [Compound I-92b],> 1000
12,Cc1ccc(C(=O)N[C@H]2CCc3nn(-c4ccnc(C(F)(F)F)c4)cc32)c(C)c1 [Compound I-93a],< 250
13,Cc1ccc(C(=O)N[C@@H]2CCc3nn(-c4ccnc(C(F)(F)F)c4)cc32)c(C)c1 [Compound I-93b],> 1000
14,COc1ccccc1C(=O)N[C@H]1CCc2nn(-c3ccnc(C(F)(F)F)c3)cc21 [Compound I-94a],< 250
15,COc1ccccc1C(=O)N[C@@H]1CCc2nn(-c3ccnc(C(F)(F)F)c3)cc21 [Compound I-94b],> 1000
16,Cc1cc(Cl)ccc1C(=O)N[C@H]1CCc2nn(-c3ccnc(C(F)(F)F)c3)cc21 [Compound I-95a],< 250
17,Cc1cc(Cl)ccc1C(=O)N[C@@H]1CCc2nn(-c3ccnc(C(F)(F)F)c3)cc21 [Compound I-95b],> 1000
18,CS(=O)(=O)c1ccc(C(=O)N[C@H]2CCc3nn(-c4ccnc(C(F)(F)F)c4)cc32)cc1 [Compound I-96a],> 1000
19,CS(=O)(=O)c1ccc(C(=O)N[C@@H]2CCc3nn(-c4ccnc(C(F)(F)F)c4)cc32)cc1 [Compound I-96b],> 1000
20,Cc1cccc(C(=O)N[C@H]2CCc3nn(-c4ccnc(C(F)(F)F)c4)cc32)c1 [Compound I-97a],< 250
21,Cc1cccc(C(=O)N[C@@H]2CCc3nn(-c4ccnc(C(F)(F)F)c4)cc32)c1 [Compound I-97b],> 1000
22,Cc1cc(Cl)cc(C(=O)N[C@H]2CCc3nn(-c4ccnc(C(F)(F)F)c4)cc32)c1 [Compound I-98a],< 250
23,Cc1cc(Cl)cc(C(=O)N[C@@H]2CCc3nn(-c4ccnc(C(F)(F)F)c4)cc32)c1 [Compound I-98b],> 1000
